# Data as given in US20250129055A1, “GLUCOSIDE DERIVATIVE, AND PREPARATION METHOD THEREFOR AND APPLICATION THEREOF” (BEIJING INCREASE INNOVATIVE DRUG CO., LTD., priority 2020, published 2025).
# Tests used:
# Alloxan diabetic mice = test: Efficacy in Alloxan diabetes model mice; assay type: in vivo; conditions: for Concentration of blood glucose 2 h: 2 h after administration; for Concentration of blood glucose 4 h: 4 h after administration; for Concentration of blood glucose 8 h: 8 h after administration; for Concentration of blood glucose 24 h: 24 h after administration; for Concentration of blood glucose 0 h: before administration; for Concentration of blood glucose (random): random blood glucose on the 28th day
# Protocol: Test Example 3 Research on efficacy of the compounds of the present invention in in vivo anti-Alloxan diabetes model mice
# Alloxan diabetes mice were used. Normal ICR mice (male, 22-24 g) were randomly divided into groups including normal group, model group (con), positive control group and test compound groups with four different doses (n=11), and the mice without injection of Alloxan were in a normal control group (n=10).
# Mice were administered with drugs by gavage.
# Single administration: Mice were fasted for 3 h, and then the fasting blood (0 min) was collected. Then the mice in each group were administered with drugs by gavage. After 1 h, they were administered with a glucose ([…]) solution. Blood was collected at 30 min, 60 min, 120 min, and 180 min after the glucose administration. The blood glucose level was measured using glucose oxidase-peroxidase method, and the area under the blood glucose curve was calculated.
# On the 6th day of continuous administration, under the condition of no fasting, blood samples were collected from mice before administration (0 h), 1 h, 2 h, 4 h, 8 h and 24 h after administration to measure blood glucose.
# On the 9th day of continuous administration, the mice were fasted for 1 h and then administered with drugs by gavage. An oral glucose tolerance test (OGTT) was performed 1 h after administration.
# On the 16th day of continuous administration, under the condition of no fasting, urine samples were collected from mice 1 h after administration to measure the concentration of urine glucose.
# On the 22nd day of continuous administration, the mice were fasted for 1 h and then administered with drugs by gavage, and blood samples were collected to measure the fasting blood glucose 1 h after administration.
# On the 28th day of continuous administration, under the condition of no fasting, blood samples were collected from mice 1 h after administration to measure the random blood glucose.
# On the 32nd day of continuous administration, under the condition of no fasting, blood samples were collected from mice to measure glycosylated hemoglobin (HbA1c).
# The data were expressed as mean±SEM (n=10-11). The comparison between multiple groups was performed by one-way analysis of variance, and the comparison between two groups was performed by Dunnett's t test. Statistical graphing was performed using Graphpad Prism software.
# SGLT2 = SGLT2 (Homo sapiens (Human), UniProt P31639); test: In vitro SGLT2 inhibitory activity: 1-NBDG uptake by CHO-SGLT2 cells; assay type: cell-based
# Protocol: The effect of the compounds on SGLT2-mediated glucose uptake was investigated by establishing an SGLT2 overexpression cell model and using the fluorescent glucose (2-deoxy-1-[(7-nitro-2,1,3-benzoxadiazol-4-yl)amino]-D-glucose, 1-NBDG) tracer method to screen out candidate compounds with SGLT2 inhibitory activity.
# The humanized SGLT2 overexpression cells (CHO-SGLT2) constructed from Chinese hamster ovary (CHO) cells were cultured in 1640 medium (Gibco) containing 10% fetal bovine serum (Gibco, 10270), subcultured at a ratio of 1:3, and replaced with new culture medium 3 times every week. Fluorescence detection cell culture plates and other culture flasks were purchased from Corning Company. […] Appropriate amounts of all compounds were weighed, prepared into 100 mM stock solutions with DMSO, and stored at 4° C. in the dark.
# Before the 1-NBDG uptake test, CHO-SGLT2 cells were digested and seeded in a 96-well cell culture plate with a cell number of 40,000/well. After the cells were cultured for 48 h, the medium was discarded, and 100 μl of choline buffer was added to each well. After the cells were starved at 37° C. for 30 min, the choline buffer was discarded and 100 μl of the newly prepared Na^+ sodium buffer containing […] 1-NBDG and the test compounds (Compound) was added. The solvent DMSO was used as the negative control (Control) for the test compounds.
# The Na^+ sodium buffer without 1-NBDG was used as the blank control (Blank). After 1 h of culture, the incubation solution was discarded. The cells were washed with choline buffer solution 3 times, and then 50 μl of neutral lysate was added to each well to lyse the cells on ice for 10 min. The fluorescence value of each well was detected using a multi-functional microplate reader at […].
# At least 3 experimental replicates were set for each compound at indicated concentrations, and the data were expressed as mean±SEM. Uptake amount of 1-NBDG by cells=fluorescence value1-NBDG-fluorescence valueBlank. Inhibition rate on uptake amount of SGLT2 glucose (%)=(uptake amountcontrol−uptake amountcompound)/uptake amountcontrol×100%. Concentration-inhibition rate curves were plotted using Graphpad Prism software, and IC50 values were calculated accordingly.
# [1] = 1.0 mg/kg, non-fasting, 6th day
# [2] = 2.0 mg/kg, non-fasting, 6th day
# SGLT2, sequence (P31639 whole entry): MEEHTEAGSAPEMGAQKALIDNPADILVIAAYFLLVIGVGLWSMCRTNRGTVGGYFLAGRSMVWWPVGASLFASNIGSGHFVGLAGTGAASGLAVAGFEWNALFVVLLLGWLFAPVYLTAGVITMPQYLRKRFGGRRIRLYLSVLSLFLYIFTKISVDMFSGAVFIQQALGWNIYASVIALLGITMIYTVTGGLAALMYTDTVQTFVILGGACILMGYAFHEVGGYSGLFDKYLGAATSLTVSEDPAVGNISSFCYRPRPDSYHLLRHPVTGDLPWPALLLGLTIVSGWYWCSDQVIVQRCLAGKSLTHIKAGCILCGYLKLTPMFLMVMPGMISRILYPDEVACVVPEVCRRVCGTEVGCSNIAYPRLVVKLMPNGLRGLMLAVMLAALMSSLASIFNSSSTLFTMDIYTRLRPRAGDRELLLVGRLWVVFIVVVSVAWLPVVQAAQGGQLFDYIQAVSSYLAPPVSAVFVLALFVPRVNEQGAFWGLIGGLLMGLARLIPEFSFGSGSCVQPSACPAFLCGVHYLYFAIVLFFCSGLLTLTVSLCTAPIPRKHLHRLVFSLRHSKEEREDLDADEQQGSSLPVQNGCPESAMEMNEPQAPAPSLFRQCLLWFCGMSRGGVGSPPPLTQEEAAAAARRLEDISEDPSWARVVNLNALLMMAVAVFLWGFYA
smiles,measurement,setting,value
"CS[C@H]1O[C@@H](c2ccc(C)c(Cc3ccc4c(c3)OCCO4)c2)[C@H](O)[C@@H](O)[C@@H]1O (stereo in doubt) [Compound 2, 2-[3-(2,3-dihydro-1,4-benzodioxin-6-ylmethyl)-4-methylphenyl]-6-(methylthio)oxane-3,4,5-triol]",Concentration of blood glucose 60 min,"Alloxan diabetic mice; 1.0 mg/kg, OGTT on the 9th day",205.3 ± 9.8 mg/dL
same,Concentration of blood glucose 120 min,"Alloxan diabetic mice; 1.0 mg/kg, OGTT on the 9th day",158.6 ± 8.8 mg/dL
same,AUC of blood glucose,"Alloxan diabetic mice; 1.0 mg/kg, non-fasting, 6th day, 0-24 h",10310 ± 308.4 mg·h/dL
same,Concentration of blood glucose 1 h,"Alloxan diabetic mice; 1.0 mg/kg, non-fasting, 6th day, 1 h after administration",417.1 ± 14.8 mg/dL
same,Concentration of blood glucose 2 h,Alloxan diabetic mice; [1],409.8 ± 16.7 mg/dL
same,Concentration of blood glucose 4 h,Alloxan diabetic mice; [1],323.8 ± 16.1 mg/dL
same,Concentration of blood glucose 8 h,Alloxan diabetic mice; [1],368.3 ± 19.4 mg/dL
same,Concentration of blood glucose 24 h,Alloxan diabetic mice; [1],550.3 ± 17.0 mg/dL
same,Concentration of blood glucose 0 h,Alloxan diabetic mice; [1],444.1 ± 19.2 mg/dL
same,Concentration of blood glucose (random),Alloxan diabetic mice; 1.0 mg/kg,395.8 ± 24.1 mg/dL
same,"Concentration of fasting blood glucose, the 9th day","Alloxan diabetic mice; 2.0 mg/kg, 9th day",184.9 ± 18.3 mg/dL
same,"Concentration of fasting blood glucose, the 22nd day","Alloxan diabetic mice; 2.0 mg/kg, 22nd day",211.9 ± 17.8 mg/dL
same,HbA1c,"Alloxan diabetic mice; 2.0 mg/kg, 32nd day",6.0 ± 0.4 %
same,AUC of blood glucose,"Alloxan diabetic mice; 2.0 mg/kg, OGTT on the 9th day",393.9 ± 25.6 mg·h/dL
same,Concentration of blood glucose 0 min,"Alloxan diabetic mice; 2.0 mg/kg, OGTT on the 9th day, 0 min",184.9 ± 18.3 mg/dL
same,Concentration of blood glucose 30 min,"Alloxan diabetic mice; 2.0 mg/kg, OGTT on the 9th day, 30 min",246.0 ± 11.7 mg/dL
same,Concentration of blood glucose 60 min,"Alloxan diabetic mice; 2.0 mg/kg, OGTT on the 9th day",205.1 ± 12.6 mg/dL
same,Concentration of blood glucose 120 min,"Alloxan diabetic mice; 2.0 mg/kg, OGTT on the 9th day",141.7 ± 14.6 mg/dL
same,AUC of blood glucose,"Alloxan diabetic mice; 2.0 mg/kg, non-fasting, 6th day, 0-24 h",11326 ± 225.5 mg·h/dL
same,Concentration of blood glucose 1 h,"Alloxan diabetic mice; 2.0 mg/kg, non-fasting, 6th day, 1 h after administration",414.1 ± 18.3 mg/dL
same,Concentration of blood glucose 2 h,Alloxan diabetic mice; [2],460.2 ± 15.0 mg/dL
same,Concentration of blood glucose 4 h,Alloxan diabetic mice; [2],390.6 ± 28.2 mg/dL
same,Concentration of blood glucose 8 h,Alloxan diabetic mice; [2],434.0 ± 18.8 mg/dL
same,Concentration of blood glucose 24 h,Alloxan diabetic mice; [2],559.3 ± 10.4 mg/dL
same,Concentration of blood glucose 0 h,Alloxan diabetic mice; [2],473.0 ± 16.2 mg/dL
same,Concentration of blood glucose (random),Alloxan diabetic mice; 2.0 mg/kg,391.2 ± 26.0 mg/dL
same,Duration of hypoglycemic effect,"Alloxan diabetic mice; 6th day, dapagliflozin 2.0 mg/kg, Compound 2 0.25-2.0 mg/kg",still had a good hypoglycemic effect after 8-24 h
same,Concentration of urine glucose,"Alloxan diabetic mice; continuous administration for 16 days, 0.25-2.0 mg/kg, non-fasting, 1 h after administration",significantly increase
same,"Effect on body weight, food intake and water intake","Alloxan diabetic mice; continuous administration for 22 days, 0.25-2.0 mg/kg",no obvious effect
same,Blood glucose level and AUC after glucose administration,"Alloxan diabetic mice; single administration, 0.25, 0.5, 1.0 and 2.0 mg/kg",significantly lower
same,IC50,"SGLT2; CHO-SGLT2 cells, 1-NBDG uptake, read-out: IC50 inhibiting SGLT2",0.105 nM
same,inhibition at 1 µM,"SGLT2; compound concentration 1 × 10^−6 mol/L, read-out: Inhibition rate of compounds on SGLT2 (%)",107 ± 1.1%
same,inhibition at 0.0001 µM,"SGLT2; compound concentration 1 × 10^−10 mol/L, read-out: Inhibition rate of compounds on SGLT2 (%)",40.6 ± 1%
same,inhibition at 10 pM,"SGLT2; compound concentration 1 × 10^−11 mol/L, read-out: Inhibition rate of compounds on SGLT2 (%)",0%
same,inhibition at 1 pM,"SGLT2; compound concentration 1 × 10^−12 mol/L, read-out: Inhibition rate of compounds on SGLT2 (%)",0.3 ± 6.4%
same,inhibition at 0.5 µM,"SGLT2; compound concentration 5 × 10^−7 mol/L, read-out: Inhibition rate of compounds on SGLT2 (%)",81.6 ± 2.5%
same,inhibition at 0.005 µM,"SGLT2; compound concentration 5 × 10^−9 mol/L, read-out: Inhibition rate of compounds on SGLT2 (%)",80.7 ± 3%
same,inhibition at 0.0005 µM,"SGLT2; compound concentration 5 × 10^−10 mol/L, read-out: Inhibition rate of compounds on SGLT2 (%)",61.9 ± 3.6%
same,inhibition at 50 pM,"SGLT2; compound concentration 5 × 10^−11 mol/L, read-out: Inhibition rate of compounds on SGLT2 (%)",39.2 ± 2.1%
